Test results taken from ChEMBL document CHEMBL3872283, “Design, Synthesis, and Evaluation of Novel and Selective G-protein Coupled Receptor 120 (GPR120) Spirocyclic Agonists” (ACS Med Chem Lett, 2017).
Activity calls are given as the source filed them. No cut-off for these calls is given here.

Tests used:
[1] = Oral bioavailability in mouse at 10 mg/kg by LC/MS/MS analysis; format: ADME, organism-based; conditions: in vivo
[2] = Half life in mouse at 2 mg/kg, iv or 10 mg/kg, po by LC/MS/MS analysis; format: ADME, organism-based; conditions: in vivo
[3] = Half life in rhesus monkey at 0.5 mg/kg, iv or 1 mg/kg, po by LC/MS/MS analysis; format: ADME, organism-based, Macaca mulatta; conditions: in vivo
[4] = Plasma clearance in dog at 1 mg/kg, iv or 2 mg/kg, po by LC/MS/MS analysis; format: ADME, organism-based, Canis lupus familiaris
[5] = Half life in dog at 1 mg/kg, iv or 2 mg/kg, po by LC/MS/MS analysis; format: ADME, organism-based, Canis lupus familiaris; conditions: in vivo
[6] = AUC in rat at 1 mg/kg, iv by LC/MS/MS analysis; format: ADME, organism-based; conditions: in vivo
[7] = AUC in mouse at 2 mg/kg, iv by LC/MS/MS analysis; format: ADME, organism-based; conditions: in vivo
[8] = Protein binding in dog plasma at 1 mg/kg, iv or 2 mg/kg, po by LC/MS/MS analysis; format: ADME, organism-based, Canis lupus familiaris; conditions: read-out: PPB (converted)
Cytochrome P450 2D6 = Cytochrome P450 2D6 (Homo sapiens, UniProt P10635); assay: Inhibition of human CYP2D6; format: ADME
[9] = biological target: Voltage-dependent L-type calcium channel subunit alpha-1C (Homo sapiens, UniProt Q13936); assay: Inhibition of Cav1.2 (unknown origin)
[10] = biological target: Free fatty acid receptor 1 (Homo sapiens, UniProt O14842); assay: Agonist activity at human GPR40 expressed in HEK293 cells assessed as induction of IP1 accumulation after 60 mins by HTRF assay; format: functional, cell-based
[11] = AUC in dog at 1 mg/kg, iv by LC/MS/MS analysis; format: ADME, organism-based, Canis lupus familiaris; conditions: in vivo
Mus musculus [12] = assay: Decrease in insulin levels in diet-induced obese mouse at 30 mg/kg, po qd administered daily via gavage for 28 days measured on day 28 post dose; format: functional, organism-based
[13] = Plasma clearance in mouse at 2 mg/kg, iv or 10 mg/kg, po by LC/MS/MS analysis; format: ADME, organism-based
[14] = Antidiabetic activity in C57BL/6 mouse at 30 mg/kg, po administered 60 mins via gavage prior to dextrose challenge measured up to 120 mins post dextrose challenge by oGTT; format: functional, organism-based
[15] = MRT in rat at 1 mg/kg, iv or 2 mg/kg, po by LC/MS/MS analysis; format: ADME, organism-based; conditions: in vivo
[16] = Oral bioavailability in rat at 2 mg/kg by LC/MS/MS analysis; format: ADME, organism-based; conditions: in vivo
[17] = Volume of distribution at steady state in mouse at 2 mg/kg, iv or 10 mg/kg, po by LC/MS/MS analysis; format: ADME, organism-based; conditions: in vivo, read-out: Vdss
Mus musculus [18] = assay: Antidiabetic activity in diet-induced obese mouse assessed as insulin sensitivity by measuring reduction in glucose at 30 mg/kg, po qd administered daily via gavage for 28 days measured on day 28 post dose; format: functional, organism-based
[19] = biological target: T1, Peroxisome proliferator-activated receptor gamma (Homo sapiens) (UniProt P37231); assay: Displacement of [3H]Rosiglitazone from recombinant human PPARgamma expressed in insect cells
T1 sequence (whole entry): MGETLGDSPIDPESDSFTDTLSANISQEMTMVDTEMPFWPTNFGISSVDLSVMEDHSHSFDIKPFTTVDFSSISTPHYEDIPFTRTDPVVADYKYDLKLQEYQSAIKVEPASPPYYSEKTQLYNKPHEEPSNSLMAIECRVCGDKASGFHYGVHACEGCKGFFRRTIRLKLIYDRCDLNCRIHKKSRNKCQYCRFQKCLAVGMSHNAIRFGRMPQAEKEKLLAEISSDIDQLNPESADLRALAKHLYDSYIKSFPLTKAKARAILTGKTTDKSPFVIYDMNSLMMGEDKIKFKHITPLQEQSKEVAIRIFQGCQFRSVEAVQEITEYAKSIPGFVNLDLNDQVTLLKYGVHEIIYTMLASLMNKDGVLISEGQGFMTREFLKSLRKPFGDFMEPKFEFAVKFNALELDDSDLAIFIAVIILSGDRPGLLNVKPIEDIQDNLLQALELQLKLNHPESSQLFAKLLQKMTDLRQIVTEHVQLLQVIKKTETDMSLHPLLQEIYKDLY

[20] = biological target: T2, Peroxisome proliferator-activated receptor delta (Homo sapiens) (UniProt Q03181); assay: Binding affinity to human PPARdelta
T2 sequence (whole entry): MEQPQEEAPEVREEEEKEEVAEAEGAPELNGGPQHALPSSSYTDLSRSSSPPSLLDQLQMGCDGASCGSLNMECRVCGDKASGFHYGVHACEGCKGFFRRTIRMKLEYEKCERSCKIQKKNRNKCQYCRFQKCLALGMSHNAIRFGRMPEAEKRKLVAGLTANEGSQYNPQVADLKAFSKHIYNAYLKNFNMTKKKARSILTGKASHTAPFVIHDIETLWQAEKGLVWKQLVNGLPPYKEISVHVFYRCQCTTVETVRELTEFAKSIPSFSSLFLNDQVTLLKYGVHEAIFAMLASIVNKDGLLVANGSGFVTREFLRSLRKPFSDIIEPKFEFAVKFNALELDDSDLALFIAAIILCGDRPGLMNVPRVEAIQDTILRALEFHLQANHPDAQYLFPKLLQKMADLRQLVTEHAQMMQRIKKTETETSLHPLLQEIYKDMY

Mus musculus [21] = assay: Antidiabetic activity in diet-induced obese mouse assessed as reduction in homeostatic model assessment of insulin resistance at 30 mg/kg, po qd administered daily via gavage for 28 days measured on day 28 post dose; format: functional, organism-based
Mus musculus [22] = assay: Toxicity in diet-induced obese mouse assessed as change in body weight at 30 mg/kg, po qd administered daily via gavage for 28 days; format: organism-based; conditions: in vivo, 672 h
[23] = Oral bioavailability in rhesus monkey at 1 mg/kg by LC/MS/MS analysis; format: ADME, organism-based, Macaca mulatta; conditions: in vivo
Cytochrome P450 2C9 = Cytochrome P450 2C9 (Homo sapiens, UniProt P11712); assay: Inhibition of human CYP2C9; format: ADME
[24] = Half life in rat at 1 mg/kg, iv or 2 mg/kg, po by LC/MS/MS analysis; format: ADME, organism-based; conditions: in vivo
[25] = biological target: T3, Free fatty acid receptor 4 (Mus musculus, UniProt Q7TMA4); assay: Agonist activity at mouse GPR120 expressed in CHOK1 cells assessed as induction of IP1 accumulation after 60 mins by HTRF assay; format: functional, cell-based, CHO-K1
T3 sequence (Q7TMA4 whole entry): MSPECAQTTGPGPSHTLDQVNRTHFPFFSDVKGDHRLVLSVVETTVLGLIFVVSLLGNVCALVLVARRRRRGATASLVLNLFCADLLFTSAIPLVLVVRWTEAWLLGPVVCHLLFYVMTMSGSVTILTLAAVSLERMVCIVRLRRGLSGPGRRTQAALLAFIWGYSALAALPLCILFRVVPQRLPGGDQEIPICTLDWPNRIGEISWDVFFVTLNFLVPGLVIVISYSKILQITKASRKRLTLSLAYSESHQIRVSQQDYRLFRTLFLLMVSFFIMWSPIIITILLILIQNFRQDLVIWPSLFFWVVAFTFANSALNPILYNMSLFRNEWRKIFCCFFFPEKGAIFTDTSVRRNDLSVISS

Sequence of Cytochrome P450 2C9 (P11712 whole entry): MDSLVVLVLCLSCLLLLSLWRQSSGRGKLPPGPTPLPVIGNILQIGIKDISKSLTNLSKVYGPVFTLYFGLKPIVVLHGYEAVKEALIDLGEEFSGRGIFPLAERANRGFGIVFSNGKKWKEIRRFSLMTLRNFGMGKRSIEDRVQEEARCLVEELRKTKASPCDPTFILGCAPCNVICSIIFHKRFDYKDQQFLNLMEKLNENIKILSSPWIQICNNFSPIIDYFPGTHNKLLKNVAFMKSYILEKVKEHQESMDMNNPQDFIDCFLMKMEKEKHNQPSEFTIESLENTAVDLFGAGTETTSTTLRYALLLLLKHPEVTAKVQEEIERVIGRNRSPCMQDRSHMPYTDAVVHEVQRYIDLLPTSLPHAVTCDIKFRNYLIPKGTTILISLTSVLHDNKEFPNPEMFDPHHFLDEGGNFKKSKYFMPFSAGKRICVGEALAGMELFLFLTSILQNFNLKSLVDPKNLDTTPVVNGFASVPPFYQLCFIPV
Sequence of Cytochrome P450 2D6 (P10635 whole entry): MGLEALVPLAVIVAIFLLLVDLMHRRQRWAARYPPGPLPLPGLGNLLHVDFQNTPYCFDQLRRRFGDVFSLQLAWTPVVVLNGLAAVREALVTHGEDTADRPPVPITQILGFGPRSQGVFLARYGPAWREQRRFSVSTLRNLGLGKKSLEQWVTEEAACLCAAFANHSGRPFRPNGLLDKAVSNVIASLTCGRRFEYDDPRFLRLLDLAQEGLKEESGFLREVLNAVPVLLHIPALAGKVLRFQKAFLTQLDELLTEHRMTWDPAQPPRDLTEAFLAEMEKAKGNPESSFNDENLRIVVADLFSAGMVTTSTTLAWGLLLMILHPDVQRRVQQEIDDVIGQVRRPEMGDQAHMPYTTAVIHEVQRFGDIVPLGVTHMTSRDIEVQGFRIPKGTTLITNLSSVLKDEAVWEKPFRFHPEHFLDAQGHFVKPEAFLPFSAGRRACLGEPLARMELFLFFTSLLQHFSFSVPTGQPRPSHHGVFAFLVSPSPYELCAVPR
Sequence of Free fatty acid receptor 1 (O14842 whole entry): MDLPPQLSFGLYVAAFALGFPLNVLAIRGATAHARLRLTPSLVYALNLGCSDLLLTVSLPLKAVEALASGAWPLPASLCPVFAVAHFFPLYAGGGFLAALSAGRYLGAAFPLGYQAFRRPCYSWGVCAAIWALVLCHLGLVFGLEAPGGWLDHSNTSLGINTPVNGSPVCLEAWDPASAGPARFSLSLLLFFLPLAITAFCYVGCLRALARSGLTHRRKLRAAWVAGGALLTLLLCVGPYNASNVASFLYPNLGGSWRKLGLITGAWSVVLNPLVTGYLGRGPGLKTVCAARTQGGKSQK
Sequence of Voltage-dependent L-type calcium channel subunit alpha-1C (Q13936 whole entry): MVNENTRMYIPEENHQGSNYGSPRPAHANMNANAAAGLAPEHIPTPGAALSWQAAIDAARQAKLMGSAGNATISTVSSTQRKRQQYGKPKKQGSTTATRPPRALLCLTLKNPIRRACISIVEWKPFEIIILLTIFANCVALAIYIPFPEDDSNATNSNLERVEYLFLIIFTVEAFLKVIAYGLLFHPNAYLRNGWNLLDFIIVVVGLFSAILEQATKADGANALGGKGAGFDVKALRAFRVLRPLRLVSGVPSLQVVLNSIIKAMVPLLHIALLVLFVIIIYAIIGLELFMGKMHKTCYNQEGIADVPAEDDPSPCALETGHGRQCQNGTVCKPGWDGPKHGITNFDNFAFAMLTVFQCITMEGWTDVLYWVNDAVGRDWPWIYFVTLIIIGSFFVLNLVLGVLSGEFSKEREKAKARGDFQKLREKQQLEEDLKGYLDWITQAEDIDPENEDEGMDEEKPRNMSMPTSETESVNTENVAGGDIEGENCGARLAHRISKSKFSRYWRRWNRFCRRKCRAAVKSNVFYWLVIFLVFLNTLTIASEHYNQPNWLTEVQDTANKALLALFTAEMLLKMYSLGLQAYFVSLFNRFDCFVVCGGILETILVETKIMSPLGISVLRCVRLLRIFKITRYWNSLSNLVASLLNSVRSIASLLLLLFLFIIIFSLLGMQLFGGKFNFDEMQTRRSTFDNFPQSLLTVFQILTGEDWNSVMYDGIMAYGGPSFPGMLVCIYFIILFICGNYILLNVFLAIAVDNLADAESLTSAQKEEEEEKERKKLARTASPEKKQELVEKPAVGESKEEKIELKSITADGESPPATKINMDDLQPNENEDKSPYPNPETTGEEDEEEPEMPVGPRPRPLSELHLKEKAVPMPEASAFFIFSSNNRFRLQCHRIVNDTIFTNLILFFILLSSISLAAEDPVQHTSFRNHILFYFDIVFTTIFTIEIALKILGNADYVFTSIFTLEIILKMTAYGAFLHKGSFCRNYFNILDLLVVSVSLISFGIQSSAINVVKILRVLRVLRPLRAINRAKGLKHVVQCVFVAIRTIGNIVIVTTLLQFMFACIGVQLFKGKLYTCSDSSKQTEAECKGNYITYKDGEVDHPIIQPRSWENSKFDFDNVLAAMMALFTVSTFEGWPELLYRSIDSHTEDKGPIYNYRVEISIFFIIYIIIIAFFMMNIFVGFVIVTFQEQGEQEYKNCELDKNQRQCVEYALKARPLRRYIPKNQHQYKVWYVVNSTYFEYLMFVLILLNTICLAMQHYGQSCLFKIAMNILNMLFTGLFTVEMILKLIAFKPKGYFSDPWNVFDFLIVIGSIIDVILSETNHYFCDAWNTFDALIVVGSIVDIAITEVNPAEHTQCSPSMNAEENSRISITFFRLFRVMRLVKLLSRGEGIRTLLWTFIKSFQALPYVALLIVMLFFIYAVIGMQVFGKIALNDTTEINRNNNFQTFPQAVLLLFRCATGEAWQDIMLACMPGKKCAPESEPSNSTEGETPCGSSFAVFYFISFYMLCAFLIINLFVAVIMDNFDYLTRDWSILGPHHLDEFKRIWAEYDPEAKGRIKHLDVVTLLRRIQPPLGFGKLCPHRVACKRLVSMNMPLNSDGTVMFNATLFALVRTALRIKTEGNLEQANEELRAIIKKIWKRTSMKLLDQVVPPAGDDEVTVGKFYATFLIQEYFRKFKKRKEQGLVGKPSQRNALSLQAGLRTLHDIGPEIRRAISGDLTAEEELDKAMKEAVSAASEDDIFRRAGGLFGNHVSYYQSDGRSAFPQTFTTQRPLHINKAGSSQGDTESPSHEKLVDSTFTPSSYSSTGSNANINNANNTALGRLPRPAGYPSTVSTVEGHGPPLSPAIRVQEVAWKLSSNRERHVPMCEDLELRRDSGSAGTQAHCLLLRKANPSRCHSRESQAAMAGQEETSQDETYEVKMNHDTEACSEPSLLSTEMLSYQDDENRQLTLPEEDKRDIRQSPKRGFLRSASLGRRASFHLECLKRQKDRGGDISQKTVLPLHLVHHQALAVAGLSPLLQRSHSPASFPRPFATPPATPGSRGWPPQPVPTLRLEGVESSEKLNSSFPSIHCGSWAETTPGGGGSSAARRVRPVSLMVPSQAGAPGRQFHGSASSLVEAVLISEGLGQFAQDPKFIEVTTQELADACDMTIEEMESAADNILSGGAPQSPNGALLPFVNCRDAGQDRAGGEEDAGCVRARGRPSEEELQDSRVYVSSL

For O=C(O)CC1CCC2(CC1)CCN(c1cc(OC(F)(F)F)ccc1Cl)CC2, the bioavailability [1] was 100%, the half-life [2] was 18.1 h and the half-life [3] was 9.1 h. It also gave a clearance [4] of 9.8 mL/min/kg, a half-life [5] of 11 h and an AUC [6] of 17.5 µM·h. For the same compound, the AUC [7] was 14.6 µM·h, the fraction unbound [8] was 0.0015 and the INH (Cytochrome P450 2D6) was > 48 µM. For the same compound, the INH [9] was 21 µM, the EC50 [10] was > 10000 nM and the AUC [11] was 4.6 µM·h. The Activity (Mus musculus [12]) was “Active”, the clearance [13] was 8.4 mL/min/kg and the Activity [14] was “Active”. The MRT [15] was 3 h, the bioavailability [16] was 95% and the Vd [17] was 8.9 L/kg. The Activity (Mus musculus [18]) was “Active”, the INH [19] was > 10 µM and the Activity [20] was > 10 µM. For the same compound, the Activity (Mus musculus [21]) was “Active”, the Activity (Mus musculus [22]) was “Non-Toxic” and the bioavailability [23] was 77%. The INH (Cytochrome P450 2C9) was > 48 µM, the half-life [24] was 1.4 h and the EC50 [25] was 33 nM.
